Results taken from patent US7572809B2, “Isoquinoline aminopyrazole derivatives” (Hoffmann-La Roche Inc., priority 2005, dated 2009).

The compounds below were run on HCT 116 cells (assay: Viability assay in HCT 116 cells (CellTiter-Glo)). Conditions: 120 h; HCT 116 human colon carcinoma cells, 5 days incubation.
Type: cell-based
Method: Viability Assay in HCT 116 Cells
A viability assay was performed using the CellTiter-Glo® Luminescent Cell Viability Assay (see Promega Corporation's Technical Bulletin No. 288, pp. 1-11 [revised February, 2004] which is hereby incorporated by reference in its entirety). This assay is a homogeneous method of determining the number of viable cells in culture based on quantitation of the ATP present, an indicator of metabolically active cells. The assay is designed for use with multiwell formats, making it ideal for automated high-throughput screening (HTS), cell proliferation and cytotoxicity assays. The homogeneous assay procedure involves adding a single reagent (containing luciferase, luciferan substrate, and buffer) directly to cells cultured in serum-supplemented medium. Cell washing, removal of medium and multiple pipetting steps are not required. The system detects as few as 15 cells/well in a 384-well format in 10 minutes after adding reagent and mixing.
The homogeneous “add-mix-measure” format results in cell lysis and generation of a luminescent signal proportional to the amount of ATP present. The amount of ATP is directly proportional to the number of cells present in culture. The above-referenced assay generates a “glow-type” luminescent signal, produced by the luciferase reaction, which has a half-life generally greater than five hours, depending on cell type and medium used. The extended half-life eliminates the need to use reagent injectors and provides flexibility for continuous or batch mode processing of multiple plates. The unique homogeneous format avoids errors that may be introduced by other ATP measurement methods that require multiple steps.
HCT 116 cells (human colon carcinoma, ATCC-No. CCl-247) were cultivated in RPMI 1640 medium with GlutaMAX™ I (cell culture media that contains L-Alanyl-L-Glutamine [a stabilized form/source of L-Glutamine] from Invitrogen, Cat-No. 61870-010), 5% Fetal Calf Serum (FCS, Sigma Cat-No. F4135 (FBS)); 100 Units/ml penicillin/100 μg/ml streptomycin (=Pen/Strep from Invitrogen Cat. No. 15140). For the assay the cells were seeded in 384 well plates, 1000 cells per well, in the same medium. The next day the test compounds were added in various concentrations ranging from 30 μM to 0.0015 μM (10 concentrations, 1:3 diluted). After 5 days the viability assay was performed according to the instructions of the manufacturer. In brief: the cell-plate was equilibrated to room temperature for approximately 30 minutes and then the CellTiter-Glo™ reagent (which contains luciferase, luciferan substrate, and buffer) was added. The contents were carefully mixed for 15 minutes to induce cell lysis. After 45 minutes the luminescent signal was measured in Victor 2, (scanning multiwell spectrophotometer, Wallac).
1st. Day: • Medium: RPMI 1640 with GlutaMAX™ I (Invitrogen, Cat-No. 61870), 5% FCS (Sigma Cat.-No. F4135), Pen/Strep (Invitrogen, Cat No. 15140). • HCT116 (ATCC-No. CCl-247): 1000 cells in 60 μl per well of 384 well plate (Greiner 781098, μClear-plate white) • After seeding incubate plates 24 h at 37° C., 5% CO2 2nd. Day: Induction (Treatment with Compounds, 10 Concentrations):
In order to achieve a final concentration of 30 μM as highest concentration 3.5 μl of 10 mM compound stock solution were added directly to 163 μl media. Then step e) of the dilution procedure described below, was followed.
In order to achieve the second highest to the lowest concentrations, a serial dilution with dilution steps of 1:3 was followed according to the procedure (a-e) as described here below: a) for the second highest concentration add 10 μl of 10 mM stock solution of compound to 20 μl dimethylsulfoxide (DMSO) b) dilute 8×1:3 (always 10 μl to 20 μl DMSO) in this DMSO dilution row (results in 9 wells with concentrations from 3333.3 μM to 0.51 μM) c) dilute each concentration 1:47.6 (3.5 μl compound dilution to 163 μl media) […]
Compound `Cc1cc(Nc2cc3ccccc3c(Oc3ccccc3)n2)n[nH]1` [Example 11, (5-Methyl-1H-pyrazol-3-yl)-(1-phenoxy-isoquinolin-3-yl)-amine] has an IC50 of 1830 nM. With `Cc1cc(Nc2cc3ccccc3c(OCc3ccccc3)n2)n[nH]1` [Example 12, (1-Benzyloxy-isoquinolin-3-yl)-(5-methyl-1H-pyrazol-3-yl)-amine] the IC50 was 3320 nM. Work on `Cc1cc(Nc2cc3ccccc3c(Oc3ccc(Cl)cc3)n2)n[nH]1` [Example 16, [1-(4-Chloro-phenoxy)-isoquinolin-3-yl]-(5-methyl-1H-pyrazol-3-yl)-amine] yielded an IC50 of 1930 nM. For `Cc1cc(Nc2cc3ccccc3c(Oc3ccccc3C)n2)n[nH]1` [Example 21, (5-Methyl-1H-pyrazol-3-yl)-(1-o-tolyloxy-isoquinolin-3-yl)-amine], the IC50 was 5670 nM. `Cc1cc(Nc2cc3ccccc3c(Oc3cccc(C#N)c3)n2)n[nH]1` [Example 28, 3-[3-(5-Methyl-1H-pyrazol-3-ylamino)-isoquinolin-1-yloxy]-benzonitrile] gave an IC50 of 999 nM. With `Cc1cc(Nc2cc3ccccc3c(OC3CCCCC3)n2)n[nH]1` [Example 33, (1-Cyclohexyloxy-isoquinolin-3-yl)-(5-methyl-1H-pyrazol-3-yl)-amine] the IC50 was 3240 nM. For `COc1ccc2c(Oc3ccc(C#N)cc3)nc(Nc3cc(C)[nH]n3)cc2c1` [Example 39, 4-[3-(5-Methyl-1H-pyrazol-3-ylamino)-6-methoxy-isoquinolin-1-yloxy]-benzonitrile], the IC50 was 1380 nM. `COc1ccc2c(OCCN3CCOCC3)nc(Nc3cc(C)[nH]n3)cc2c1` [Example 53, (5-Methyl-1H-pyrazol-3-yl)-[1-(2-morpholin-4-yl-ethoxy)-6-methoxy-isoquinolin-3-yl]-amine] was tested, and the IC50 was 3500 nM. In the case of `COc1ccc2c(OC(C)C)nc(Nc3cc(C)[nH]n3)cc2c1` [Example 56, (1-Isopropoxy-6-methoxy-isoquinolin-3-yl)-(5-methyl-1H-pyrazol-3-yl)-amine], the IC50 is reported as 636 nM. `COc1cccc2c(Oc3ccc(C)cc3)nc(Nc3cc(C)[nH]n3)cc12` [Example 67, (5-Methyl-1H-pyrazol-3-yl)-(1-p-tolyloxy-5-methoxy-isoquinolin-3-yl)-amine] was tested, and the IC50 was 1370 nM. Work on `COc1ccc2cc(Nc3cc(C)[nH]n3)nc(Oc3ccc(Cl)cc3)c2c1` [Example 77, [1-(4-Chloro-phenoxy)-7-methoxy-isoquinolin-3-yl]-(5-methyl-1H-pyrazol-3-yl)-amine] yielded an IC50 of 1940 nM. `COc1ccc2c(Oc3ccc(F)cc3)nc(Nc3cc(C)[nH]n3)cc2c1OC` [Example 94, [1-(4-Fluoro-phenoxy)-5,6-dimethoxy-isoquinolin-3-yl]-(5-methyl-1H-pyrazol-3-yl)-amine] was tested, and the IC50 was 2540 nM. With `COc1cc2cc(Nc3cc(C)[nH]n3)nc(OC3CCC3)c2cc1OC` [Example 125, (1-Cyclobutoxy-6,7-dimethoxy-isoquinolin-3-yl)-(5-methyl-1H-pyrazol-3-yl)-amine] the IC50 was 510 nM. `Cc1cc(Nc2cc3ccccc3c(-c3ccccc3)n2)n[nH]1` [Example 131, (5-Methyl-1H-pyrazol-3-yl)-(1-phenyl-isoquinolin-3-yl)-amine] was tested, and the IC50 was 3930 nM. Work on `Cc1cc(Nc2cc3ccccc3c(-c3ccc(Cl)cc3)n2)n[nH]1` [Example 140, [1-(4-Chloro-phenyl)-isoquinolin-3-yl]-(5-methyl-1H-pyrazol-3-yl)-amine] yielded an IC50 of 2610 nM. `Cc1cc(Nc2cc3ccccc3c(-c3csc4ccccc34)n2)n[nH]1` [Example 159, (1-Benzo[b]thiophen-3-yl-isoquinolin-3-yl)-(5-methyl-1H-pyrazol-3-yl)-amine] showed an IC50 of 1900 nM. In the case of `Cc1cc(Nc2cc3ccccc3c(-c3cnn(C)c3)n2)n[nH]1` [Example 164, (5-Methyl-1H-pyrazol-3-yl)-[1-(1-methyl-1H-pyrazol-4-yl)-isoquinolin-3-yl]-amine], the IC50 is reported as 5310 nM. For `COc1ccc2c(-c3cn[nH]c3)nc(Nc3cc(C)[nH]n3)cc2c1` [Example 194, (5-Methyl-1H-pyrazol-3-yl)-[1-(1H-pyrazol-4-yl)-6-methoxy-isoquinolin-3-yl]-amine], the IC50 was 3440 nM. In the case of `COc1cccc2c(-c3ccccc3)nc(Nc3cc(C)[nH]n3)cc12` [Example 202, (5-Methoxy-1-phenyl-isoquinolin-3-yl)-(5-methyl-1H-pyrazol-3-yl)-amine], the IC50 is reported as 1410 nM. `FC(F)(F)c1ccc(-c2nc(Nc3cc[nH]n3)cc3ccccc23)cc1` [Example 220, (1H-Pyrazol-3-yl)-[1-(4-trifluoromethyl-phenyl)-isoquinolin-3-yl]-amine] was tested, and the IC50 was 3170 nM. `COc1ccc2c(-c3ccc(C(C)=O)cc3)nc(Nc3cc[nH]n3)cc2c1` [Example 252, 1-{4-[6-Methoxy-3-(1H-pyrazol-3-ylamino)-isoquinolin-1-yl]-phenyl}-ethanone] gave an IC50 of 3870 nM. `COc1ccc2c(-c3ccc(C)cc3)nc(Nc3cc[nH]n3)cc2c1` [Example 263, (6-Methoxy-1-p-tolyl-isoquinolin-3-yl)-(1H-pyrazol-3-yl)-amine] gave an IC50 of 1540 nM. `COc1ccc2c(Nc3ccncc3)nc(Nc3cc(C)[nH]n3)cc2c1` [Example 288, 6-Methoxy-N^3-(5-methyl-1H-pyrazol-3-yl)-N^1-pyridin-4-yl-isoquinoline-1,3-diamine] was tested, and the IC50 was 1290 nM. In the case of `Cc1cc(Nc2cc3ccccc3c(Nc3cccc(Cl)c3)n2)n[nH]1` [Example 294, N^1-(3-Chloro-phenyl)-N^3-(5-methyl-1H-pyrazol-3-yl)-isoquinoline-1,3-diamine], the IC50 is reported as 1780 nM. `COc1cccc(-c2nc(Nc3cc(C)[nH]n3)cc3cc(OCCN4CCOCC4)ccc23)c1` [Example 300, [1-(3-Methoxy-phenyl)-6-(2-morpholin-4-yl-ethoxy)-isoquinolin-3-yl]-(5-methyl-1H-pyrazol-3-yl)-amine] showed an IC50 of 1530 nM. With `COCCCNC(=O)c1ccc2c(-c3ccc(F)cc3F)nc(Nc3cc(C)[nH]n3)cc2c1` [Example 302, 1-(2,4-Difluoro-phenyl)-3-(5-methyl-1H-pyrazol-3-ylamino)-isoquinoline-6-carboxylic acid (3-methoxy-propyl)-amide] the IC50 was 3070 nM. For `COc1cccc(Sc2nc(Nc3cc(C)[nH]n3)cc3ccccc23)c1` [Example 306, [1-(3-Methoxy-phenylsulfanyl)-isoquinolin-3-yl]-(5-methyl-1H-pyrazol-3-yl)-amine], the IC50 was 1580 nM. In the case of `Cc1cc(Nc2cc3ccccc3c(Sc3ccc(F)cc3)n2)n[nH]1` [Example 312, [1-(4-Fluoro-phenylsulfanyl)-isoquinolin-3-yl]-(5-methyl-1H-pyrazol-3-yl)-amine], the IC50 is reported as 3760 nM. In the case of `COc1ccc2c(C(=O)NCC3CC3)nc(Nc3cc(C)[nH]n3)cc2c1` [Example 318, 6-Methoxy-3-(5-methyl-1H-pyrazol-3-ylamino)-isoquinoline-1-carboxylic acid cyclopropylmethyl-amide], the IC50 is reported as 3110 nM.
